According to the NIST ThermoML archive (doi:10.1016/j.tca.2016.12.010):

Columns and labels:
[1] = xn = mol fraction of the nth substance listed; conditions: 94.9 kPa, Liquid, Vibrating tube method
[2] = refractive index (Na D-line) (dimensionless); xn = mol fraction of the nth substance listed; conditions: 94.9 kPa, Liquid, (Schmidt +Haensch) refractometer (Model DSR lambda)

C1COCCN1 [tetrahydro-1,4-oxazine] + CCCCCCCCCCO
Conditions | mass density, 293.15 K [kg/m3] | mass density, 303.15 K [kg/m3] | mass density, 313.15 K [kg/m3] | mass density, 323.15 K [kg/m3] | mass density, 333.15 K [kg/m3] | refractive index, 293.15 K | refractive index, 303.15 K | refractive index, 313.15 K | refractive index, 323.15 K | refractive index, 333.15 K
[1], x1 = 0.0959 | 842.65 | 835.47 | 828.35 | 821.08 | 813.99 | – | – | – | – | –
[1], x1 = 0.1972 | 856.26 | 849.05 | 841.76 | 834.65 | 827.15 | – | – | – | – | –
[1], x1 = 0.2983 | 870.74 | 863.32 | 855.74 | 848.36 | 840.7 | – | – | – | – | –
[1], x1 = 0.3997 | 886.54 | 878.86 | 870.94 | 863.25 | 855.26 | – | – | – | – | –
[1], x1 = 0.4984 | 902.71 | 894.8 | 886.64 | 878.61 | 870.39 | – | – | – | – | –
[1], x1 = 0.5901 | 918.62 | 910.46 | 902.16 | 894.03 | 885.58 | – | – | – | – | –
[1], x1 = 0.6748 | 933.78 | 925.53 | 916.99 | 908.75 | 900.13 | – | – | – | – | –
[1], x1 = 0.7975 | 957.46 | 948.96 | 940.35 | 931.54 | 922.67 | – | – | – | – | –
[1], x1 = 0.9053 | 980.12 | 971.33 | 961.51 | 952.35 | 943.05 | – | – | – | – | –
[1], x1 = 1 | 999.54 | 989.89 | 979.82 | 969.78 | 959.74 | – | – | – | – | –
[2], x1 = 0.0959 | – | – | – | – | – | 1.43851 | 1.43425 | 1.43051 | 1.42665 | 1.42296
[2], x1 = 0.1971 | – | – | – | – | – | 1.44011 | 1.43584 | 1.43195 | 1.42808 | 1.42408
[2], x1 = 0.2983 | – | – | – | – | – | 1.44177 | 1.4374 | 1.43335 | 1.42935 | 1.4252
[2], x1 = 0.3997 | – | – | – | – | – | 1.44353 | 1.43915 | 1.43498 | 1.43086 | 1.42655
[2], x1 = 0.4984 | – | – | – | – | – | 1.44523 | 1.4408 | 1.43652 | 1.43224 | 1.4278
[2], x1 = 0.5901 | – | – | – | – | – | 1.44686 | 1.44235 | 1.43799 | 1.43378 | 1.42913
[2], x1 = 0.6748 | – | – | – | – | – | 1.44835 | 1.44395 | 1.43952 | 1.43524 | 1.4304
[2], x1 = 0.7975 | – | – | – | – | – | 1.45055 | 1.44625 | 1.4419 | 1.43735 | 1.43224
[2], x1 = 0.9053 | – | – | – | – | – | 1.45253 | 1.44834 | 1.44365 | 1.43915 | 1.43382
[2], x1 = 1 | – | – | – | – | – | 1.45453 | 1.45031 | 1.44574 | 1.44113 | 1.43562
